How the values were obtained:
[1] = MTT assay, normal fibroblast cell line HDF; assay type: cell-based; settings: human, HDF normal fibroblast cells
[2] = test system: HT-29 colon cancer cells; assay: MTT antitumor assay, HT-29; assay type: cell-based; settings: Homo sapiens, HT-29, 48 h, read-out: IC50 (μM) ± SD HT-29
[3] = test system: A-549 lung cancer cells; assay: MTT antitumor assay, A-549; assay type: cell-based; settings: Homo sapiens, A549, 48 h, read-out: IC50 (μM) ± SD A-549
[4] = test system: MCF-7 breast cancer cells; assay: MTT antitumor assay, MCF-7; assay type: cell-based; settings: Homo sapiens, MCF7, 48 h, read-out: IC50 (μM) ± SD MCF-7
[5] = target: EGFR tyrosine kinase (Homo sapiens, UniProt P00533); assay: EGFR Kinase Assay Kit / Kinase-Glo luminescence kinase assay; assay type: biochemical
Sequence of EGFR tyrosine kinase (P00533 25-1210): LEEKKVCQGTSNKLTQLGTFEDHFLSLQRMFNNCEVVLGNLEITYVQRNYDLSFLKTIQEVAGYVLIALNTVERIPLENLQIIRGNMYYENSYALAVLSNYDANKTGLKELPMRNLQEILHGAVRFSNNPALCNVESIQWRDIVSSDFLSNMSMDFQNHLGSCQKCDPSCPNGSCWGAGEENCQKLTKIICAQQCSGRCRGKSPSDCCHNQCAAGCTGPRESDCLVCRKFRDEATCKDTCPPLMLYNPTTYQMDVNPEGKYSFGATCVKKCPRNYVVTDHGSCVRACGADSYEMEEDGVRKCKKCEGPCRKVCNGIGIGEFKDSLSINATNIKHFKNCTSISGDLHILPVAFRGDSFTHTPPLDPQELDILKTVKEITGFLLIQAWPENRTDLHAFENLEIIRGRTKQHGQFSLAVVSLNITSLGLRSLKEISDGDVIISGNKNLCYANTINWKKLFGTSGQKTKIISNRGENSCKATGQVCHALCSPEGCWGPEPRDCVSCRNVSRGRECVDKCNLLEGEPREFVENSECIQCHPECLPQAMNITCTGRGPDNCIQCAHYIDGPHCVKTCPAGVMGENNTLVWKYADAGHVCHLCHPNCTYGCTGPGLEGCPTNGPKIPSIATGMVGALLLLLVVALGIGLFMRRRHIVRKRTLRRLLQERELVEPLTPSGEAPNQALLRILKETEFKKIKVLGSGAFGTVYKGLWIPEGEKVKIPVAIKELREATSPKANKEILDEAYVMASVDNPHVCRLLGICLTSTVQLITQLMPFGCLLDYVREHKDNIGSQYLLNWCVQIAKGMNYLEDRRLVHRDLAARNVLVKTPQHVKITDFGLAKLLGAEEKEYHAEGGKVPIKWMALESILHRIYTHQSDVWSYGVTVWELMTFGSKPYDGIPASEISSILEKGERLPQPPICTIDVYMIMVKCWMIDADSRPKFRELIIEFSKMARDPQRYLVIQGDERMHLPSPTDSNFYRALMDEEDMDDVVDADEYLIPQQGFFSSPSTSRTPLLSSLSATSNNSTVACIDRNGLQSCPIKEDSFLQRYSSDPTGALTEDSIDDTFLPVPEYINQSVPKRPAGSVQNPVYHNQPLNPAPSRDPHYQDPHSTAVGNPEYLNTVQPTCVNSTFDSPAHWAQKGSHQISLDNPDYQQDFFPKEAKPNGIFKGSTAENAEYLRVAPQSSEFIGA

Row | Compound | IC50 at 48 h [1] | IC50 [2] | IC50 [3] | IC50 [4] | IC50 [5]
1 | Cc1ccc(CNc2ccc3nc(N)nc(Nc4ccccc4)c3c2)cc1 [10d, N^6-(4-methylbenzyl)-N^4-phenylquinazoline-2,4,6-triamine] | ≥ 100 µM | ≥ 100 µM | 0.126 ± 0.019 µM | ≥ 100 µM | 45.5 µM
2 | COc1ccc(CNc2ccc3nc(N)nc(Nc4ccccc4)c3c2)cc1 [10e, N^6-(4-methoxybenzyl)-N^4-phenylquinazoline-2,4,6-triamine] | ≥ 100 µM | 13.5 ± 1.89 µM | 15 ± 0.9 µM | 63.5 ± 1.39 µM | 3.53 µM
3 | Cc1ccc(Nc2nc(N)nc3ccc(NCc4ccccc4)cc23)cc1 [10g, N^6-benzyl-N^4-p-methylphenyl quinazoline-2,4,6-triamine] | ≥ 100 µM | ≥ 100 µM | ≥ 100 µM | ≥ 100 µM | –
4 | Nc1nc(Nc2ccc(F)cc2)c2cc(NCc3ccccc3)ccc2n1 [10l, N^6-benzyl-N^4-(4-fluorophenyl) quinazoline-2,4,6-triamine] | ≥ 100 µM | ≥ 100 µM | ≥ 100 µM | ≥ 100 µM | –
5 | Cc1ccc(C(=O)Nc2ccc3nc(N)nc(Nc4ccccc4)c3c2)cc1 [10n, N-(2-amino-4-(phenylamino)quinazolin-6-yl)-4-methylbenzamide] | ≥ 100 µM | ≥ 100 µM | ≥ 100 µM | ≥ 100 µM | –
6 | COc1cccc2c1C(=O)c1c(O)c3c(c(O)c1C2=O)C[C@@](O)(C(=O)CO)C[C@@H]3O[C@H]1C[C@H](N)[C@H](O)[C@H](C)O1 [Doxorubicin, reference compound] | ≥ 100 µM | 56.3 ± 0.9 µM | 4.3 ± 0.3 µM | 4.07 ± 0.38 µM | –

Results, then the compound that gave them:

Row | IC50 at 48 h [1] | IC50 [2] | IC50 [3] | IC50 [4] | IC50 [5] | Compound
7 | ≥ 100 µM | ≥ 100 µM | ≥ 100 µM | ≥ 100 µM | – | Nc1nc(Nc2ccccc2)c2cc(NCc3ccccc3)ccc2n1 [10a, N^6-benzyl-N^4-phenylquinazoline-2,4,6-triamine]
8 | ≥ 100 µM | ≥ 100 µM | ≥ 100 µM | ≥ 100 µM | – | COc1ccc(Nc2nc(N)nc3ccc(NCc4ccccc4)cc23)cc1 [10h, N^6-benzyl-N^4-(4-methoxyphenyl) quinazoline-2,4,6-triamine]
9 | ≥ 100 µM | ≥ 100 µM | ≥ 100 µM | ≥ 100 µM | – | Nc1nc(Nc2ccccc2)c2cc(NC(=O)c3ccc(F)cc3)ccc2n1 [10p, N-(2-amino-4-(phenylamino)quinazolin-6-yl)-4-fluorobenzamide]
10 | ≥ 100 µM | 28.1 ± 0.69 µM | 73.3 ± 1.5 µM | 18.2 ± 2.6 µM | – | C#Cc1cccc(Nc2ncnc3cc(OCCOC)c(OCCOC)cc23)c1 [Erlotinib, reference compound]

Reference: PMC10008000 (Iranian Journal of Pharmaceutical Research : IJPR, 2023)
